Assay results published in patent publication US9345732B2, “Agents derived from Holoptelea integrifolia and their compositions for the control of metabolic syndrome and associated diseases” (Laila Nutraceuticals, priority 2009, dated 2016).

Test: Diet induced metabolic syndrome model in SD rats (body weight, fat tissue weight, serum lipids)
Format: in vivo, Sprague Dawley Rats
Conditions: end of 8 weeks treatment, Composition-1 250 mg/kg or sibutramine 7 mg/kg (FIG. 6A)
Method: The extracts of Holoptelea integrifolia were then combined with other herbal extracts and tested for their efficacy. […] The Metabolic syndrome was induced in Sprague Dawley Rats by feeding the rats high fat and high cholesterol diet containing roasted bengal gram, sucrose, milk powder, mineral salt mixture, yeast, butter, groundnut oil and cholesterol for 8 weeks. Following 8 weeks induction phase, the animals were treated daily either with 250 mg/kg body weight of composition-1 or 7 mg/kg body weight of sibutramine in 10 mL of 0.5% CMC for further 8 weeks. The control group of animals were received only the vehicle (10 mL of 0.5% CMC) during this period.
Animals were acclimatized for 7 days prior to study initiation. […]
Following 8 weeks induction phase, the animals were treated orally with 250 mg/kg body weight of Composition-1 or 7 mg/kg body weight of sibutramine in 10 mL of 0.5% CMC for further 8 weeks. […] Body weight of individual animal was recorded weekly in the entire duration of the study. […]
Various biochemical parameters including lipid profile were tested using biochemistry reagents supplied by Human, Germany, in an automated clinical chemistry analyzer HumaStar300, Make: Human, Germany. Mean values of the biochemical parameters estimated before induction, after induction/before treatment and after treatment were measured and compared.

With `CC(C)CC(N(C)C)C1(c2ccc(Cl)cc2)CCC1` (stereo not shown) [Sibutramine] as the compound, how does the serum cholesterol levels read?
The serum cholesterol levels was “statistically significant reduction”.
